Test systems include NCI-H460; IGROV-1; SK-MEL-2; U-251; A498; SN12C; T47D; MDA-MB-435; HCT-15; HCT-116; MOLT-4; OVCAR-4; EKVX; HOP-62; KM12; MDA-MB-231; OVCAR-5; OVCAR-8; SNB-75.
What all share (test): NCI anticancer screen, dose series, 48 h

Molecules are shown by their SMILES.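 Following 48 hours of exposure in 96-well plates, responses at five concentrations were used to interpolate endpoints linearly. GI50 is the concentration that inhibits growth by half.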 Activity calls are given as the source filed them. No stated cut-off is given here; in the data, active = GI50 up to about 1.1 µM and inactive = higher.

For `O=C(/C=C/c1ccc(O)c(O)c1O)OCCc1ccccc1`, the GI50 in the assay with NCI-H460 was 21.6 µM (inactive); in the assay with IGROV-1, 32.9 µM (inactive); in the assay on SK-MEL-2, 61.9 µM (inactive); in the assay on U-251 it was 26.1 µM (inactive); with A498, 74.6 µM (inactive); with SN12C, 18.4 µM (inactive). The GI50 in the assay on T47D was 82.2 µM (inactive); in the assay on MDA-MB-435, 17.5 µM (inactive); with HCT-15 it was 23.4 µM; in the assay with HCT-116, 13.5 µM (inactive); with MOLT-4, 23.6 µM (inactive); with OVCAR-4 it was 15.9 µM (inactive). Also, the GI50 with EKVX is > 100 µM (inactive); in the assay with HOP-62, 26.2 µM (inactive); in the assay with KM12 it was 28.9 µM (inactive); in the assay with MDA-MB-231, 24.9 µM (inactive); in the assay with OVCAR-5 it was 41.9 µM (inactive).
Turning to `N/N=C1/CCCc2nonc21`, the GI50 in the assay with NCI-H460, with IGROV-1, in the assay on OVCAR-8, in the assay with SK-MEL-2, in the assay on U-251 and in the assay with SN12C was > 100 µM (inactive) each time. Also, the GI50 in the assay with T47D was > 100 µM (inactive); in the assay on MDA-MB-435, > 100 µM (inactive); with HCT-15, over 100 µM; in the assay with HCT-116, > 100 µM (inactive); with MOLT-4, > 100 µM (inactive); in the assay with OVCAR-4 it was > 100 µM (inactive). In addition, the GI50 with EKVX, in the assay on HOP-62, in the assay on KM12, with MDA-MB-231 and in the assay on OVCAR-5 was > 100 µM (inactive) throughout.
Regarding `COC(=O)C1=C(C)NC(=S)NC1c1ccc(N(CCCl)CCCl)cc1Cl` (configuration not stated), the GI50 was 22 µM (inactive) in the assay on NCI-H460; 29.4 µM (inactive) in the assay with IGROV-1; 31 µM (inactive) in the assay on OVCAR-8; 24.2 µM (inactive) with SK-MEL-2; 53.6 µM (inactive) with U-251; 34.2 µM (inactive) in the assay on SN12C. The GI50 was 6.71 µM (inactive) in the assay with T47D; > 54.6 µM (inactive) in the assay with SNB-75; 12.5 µM (inactive) in the assay with MDA-MB-435; 9.91 µM in the assay on HCT-15; 34 µM (inactive) in the assay on HCT-116; 4.55 µM (inactive) with MOLT-4. In addition, the GI50 in the assay with OVCAR-4 is 16.3 µM (inactive); in the assay on EKVX, 2.11 µM (inactive); in the assay with HOP-62 it was 73.6 µM (inactive); in the assay on KM12 it was 19.6 µM (inactive); in the assay with MDA-MB-231, 21 µM (inactive); in the assay on OVCAR-5, 56.5 µM (inactive).
As for `C(=C\C(SCc1ccccc1)SCc1ccccc1)/c1ccccc1`, the GI50 with NCI-H460, with IGROV-1, in the assay with OVCAR-8, in the assay with SK-MEL-2, in the assay with U-251 and in the assay with A498 was > 10 µM (inactive) in each case. For the same compound, the GI50 in the assay with SN12C was > 10 µM (inactive); in the assay with T47D, > 10 µM (inactive); with SNB-75, > 10 µM (inactive); in the assay on HCT-15, over 10 µM; in the assay with HCT-116, > 10 µM (inactive); with MOLT-4, > 10 µM (inactive). Besides, the GI50 in the assay with OVCAR-4, in the assay with EKVX, in the assay on HOP-62, in the assay on KM12 and in the assay on MDA-MB-231 was > 10 µM (inactive) in each case.
Regarding `CCOC(=O)CN1C(=O)C(=O)N(c2ccc(OC)c3ccccc23)C1=O`, the GI50 in the assay with OVCAR-8, with SK-MEL-2, with U-251, in the assay with SN12C, in the assay with T47D and in the assay with SNB-75 was > 100 µM (inactive) throughout. Also, the GI50 in the assay with MDA-MB-435 is > 100 µM (inactive); with HCT-15 it was over 100 µM; in the assay with HCT-116, > 100 µM (inactive); with MOLT-4, > 100 µM (inactive); in the assay on OVCAR-4, > 100 µM (inactive); with EKVX, > 100 µM (inactive). Also, the results for the GI50 in the assay on HOP-62, with KM12 and in the assay with OVCAR-5 were 68.5 µM (inactive), > 100 µM (inactive) and > 100 µM (inactive), respectively.
On to `Cc1nc(N)sc1C(=O)Nc1nc[nH]n1`, for which the GI50 with NCI-H460, in the assay on IGROV-1, with OVCAR-8, in the assay on SK-MEL-2, with U-251 and in the assay on SN12C was > 100 µM (inactive) throughout. Besides, the GI50 in the assay on T47D is > 100 µM (inactive); in the assay on MDA-MB-435 it was > 100 µM (inactive); with HCT-15 it was over 100 µM; with HCT-116, > 100 µM (inactive); with MOLT-4, 52.1 µM (inactive); with OVCAR-4, > 100 µM (inactive). For the same compound, the GI50 in the assay on EKVX, in the assay with HOP-62, with KM12, with MDA-MB-231 and in the assay with OVCAR-5 was > 100 µM (inactive) in each case.
Regarding `COc1cccc(-c2ccc3c4c2O[C@H]2C(=O)CC[C@@]5(O)[C@@H](C3)N(CC3CC3)CC[C@]425)c1`, the GI50 was 28.9 µM (inactive) in the assay on NCI-H460; 21.8 µM (inactive) in the assay with IGROV-1; 18.5 µM (inactive) with OVCAR-8; 19 µM (inactive) with SK-MEL-2; 16.2 µM (inactive) with U-251; 18.7 µM (inactive) with A498. Further, the GI50 was 18.5 µM (inactive) in the assay with SN12C; 18.4 µM (inactive) with T47D; 12.9 µM (inactive) with MDA-MB-435; 13.6 µM in the assay with HCT-15; 17.5 µM (inactive) with HCT-116; 10.2 µM (inactive) in the assay on MOLT-4. The GI50 in the assay on OVCAR-4 is 15.1 µM (inactive); in the assay on EKVX, 17.1 µM (inactive); in the assay with HOP-62, 19.5 µM (inactive); in the assay on KM12, 17.7 µM (inactive); in the assay with MDA-MB-231, 15.8 µM (inactive); in the assay with OVCAR-5, 17.9 µM (inactive).
For the compound `O=C(Nc1cccc(F)c1)c1cc2ccc(O)cc2o/c1=N\c1cccc(F)c1`, the GI50 in the assay on NCI-H460 is 4.26 µM (inactive); in the assay with IGROV-1, 2.08 µM (inactive); in the assay with OVCAR-8 it was 2.31 µM (inactive); with SK-MEL-2, 8.2 µM (inactive); with U-251, 3.99 µM (inactive); in the assay on A498 it was 33 µM (inactive). The GI50 was 5.96 µM (inactive) with SN12C; 3.27 µM (inactive) with T47D; 5.12 µM (inactive) in the assay on MDA-MB-435; 3.15 µM in the assay on HCT-15; 4.78 µM (inactive) in the assay with HCT-116; 2.45 µM (inactive) in the assay on MOLT-4. The GI50 was 3.59 µM (inactive) in the assay on OVCAR-4; 3.78 µM (inactive) in the assay on EKVX; 27.9 µM (inactive) in the assay on HOP-62; 6.95 µM (inactive) in the assay on KM12; 34 µM (inactive) in the assay on OVCAR-5.
As to `Oc1ccc(-c2nc3cc(F)ccc3s2)cc1`, the GI50 in the assay with NCI-H460 is 19.3 µM (inactive); with IGROV-1 it was 17.5 µM (inactive); in the assay with OVCAR-8, 31.6 µM (inactive); in the assay on SK-MEL-2, 19.1 µM (inactive); in the assay with U-251 it was 19.9 µM (inactive); in the assay with SN12C, 22.2 µM (inactive). Moreover, the GI50 in the assay with T47D was 5.22 µM (inactive); in the assay with MDA-MB-435, 20 µM (inactive); in the assay with HCT-15, 23.6 µM; in the assay with HCT-116 it was 17.5 µM (inactive); in the assay on MOLT-4, 10.4 µM (inactive); in the assay with OVCAR-4, 13.6 µM (inactive). Moreover, the GI50 with EKVX is 13.2 µM (inactive); in the assay with HOP-62 it was 24.7 µM (inactive); in the assay on KM12 it was 20.5 µM (inactive); with OVCAR-5 it was 23.1 µM (inactive).

(Values after ChEMBL document CHEMBL1201862, “PubChem BioAssay data set” (2004).)
